Measurements taken from patent EP4538262A1, “COCRYSTALS OF VORASIDENIB” (SANDOZ AG, priority 2023, dated 2025).

Tests used:
[1] = in phosphate buffer pH 6.8 + 0.003% Tween 80, 10% methanol, 25 °C
[2] = Moisture sorption isotherm (DVS); assay type: physicochemical; conditions: between 10 to 90 % RH, RH step of 5% RH
Protocol: The moisture sorption isotherms were recorded with a SPS-11 moisture sorption analyzer (MD Messtechnik, Ulm, Germany). […] The equilibrium condition for each step was set to a mass constancy of ±0.002 % over 40 min.

Compound | time of transformation to vorasidenib dihydrate [1] | DVS water content [2]
CC(Nc1nc(NC(C)C(F)(F)F)nc(-c2cccc(Cl)n2)n1)C(F)(F)F.O=C(O)CC(=O)O (centres unmarked) [Vorasidenib malonic acid cocrystal] | ten | 
C[C@@H](Nc1nc(N[C@H](C)C(F)(F)F)nc(-c2cccc(Cl)n2)n1)C(F)(F)F.C[C@@H](Nc1nc(N[C@H](C)C(F)(F)F)nc(-c2cccc(Cl)n2)n1)C(F)(F)F.O.O=C(O)/C=C/C(=O)O [vorasidenib fumaric acid cocrystal] |  | not more than 2.0 % by weight
